Reference: patent US20090203145A1, “METHODS FOR ANALYSIS OF VITAMINS” (priority 2008, published 2009)

System: specific bacteria
Experiment: Microbiological method for B6 (Official Method 961.15, Modified): signal response of similar molecules
Format: cell-based
Details: microbiological B6 assay; for Signal Response in Microbiological Method: Response, %: B6 (pyridoxine) given as 100; for response in microbiological method compared with B6: statement in words
From the text: The often low concentrations of vitamins in foods can make measuring the level of vitamins in various foods difficult. For example, the low concentration of B vitamins in infant formula makes it difficult to be measured by traditional measurement techniques such as HPLC. Currently, microbiological methods for measuring B vitamins are widely used at laboratories. This method is based on the growth of specific bacteria in the presence of a specific B vitamin and can only be measured one analyte per assay. The analysis process may take more than 30 hours. Poor reproducibility is another disadvantage. It is not unusual for a bacterial response to vary with different compounds and show low specificity. Monitoring different chemical forms. Current microbiological method have less specificity, such as those described in Official Method 961.15 (Modified), Official Methods of Analysis of AOAC International, 17th ed., AOAC International, Gaithersburg Md. (2000). In the case of B6, for example, other similar molecules may have a similar response. […] However, these compounds can be distinguished by LC/MS/MS without any problem in real samples such as milk.

Row | SMILES | Signal Response in Microbiological Method: Response, % | response in microbiological method compared with B6
1 | Cc1ncc(CO)c(C(=O)O)c1O [Pyridoxic acid, 4-pyridoxic acid] | 0% | –
2 | Cc1ncc(CO)c(CO)c1O [B6, pyridoxine, pyridoxine] | 100% | –
3 | Cc1ncc(CO)c(C=O)c1O [Pyridoxal, pyridoxal] | 112% | response as strong as B6
4 | Cc1ncc(CO)c(CN)c1O [Pyridoxamine, pyridoxamine] | 84% | response as strong as B6
